# Assay results reported in ChEMBL document CHEMBL1201862, “PubChem BioAssay data set” (2004).
# Calls of active or inactive are those of the source.
# Legend:
# [1] = target: T1, Voltage-gated N-type calcium channel alpha-1B subunit/Amyloid beta A4 precursor protein-binding family A member 1 (Homo sapiens, UniProt Q00975+Q02410); assay type: protein assay
# [2] = target: T1, Voltage-gated N-type calcium channel alpha-1B subunit/Amyloid beta A4 precursor protein-binding family A member 1; assay type: protein assay; remark: listed apart in the source
# [3] = target: T2, Rac GTPase-activating protein 1 (Homo sapiens, UniProt Q9H0H5); assay: MgcRacGAP GTPase-activating activity inhibitors, confirmation, biochemical, ADP Hunter fluorescence, primary and confirmatory (AID 624330); assay type: functional
# T2 sequence (Q9H0H5 whole entry): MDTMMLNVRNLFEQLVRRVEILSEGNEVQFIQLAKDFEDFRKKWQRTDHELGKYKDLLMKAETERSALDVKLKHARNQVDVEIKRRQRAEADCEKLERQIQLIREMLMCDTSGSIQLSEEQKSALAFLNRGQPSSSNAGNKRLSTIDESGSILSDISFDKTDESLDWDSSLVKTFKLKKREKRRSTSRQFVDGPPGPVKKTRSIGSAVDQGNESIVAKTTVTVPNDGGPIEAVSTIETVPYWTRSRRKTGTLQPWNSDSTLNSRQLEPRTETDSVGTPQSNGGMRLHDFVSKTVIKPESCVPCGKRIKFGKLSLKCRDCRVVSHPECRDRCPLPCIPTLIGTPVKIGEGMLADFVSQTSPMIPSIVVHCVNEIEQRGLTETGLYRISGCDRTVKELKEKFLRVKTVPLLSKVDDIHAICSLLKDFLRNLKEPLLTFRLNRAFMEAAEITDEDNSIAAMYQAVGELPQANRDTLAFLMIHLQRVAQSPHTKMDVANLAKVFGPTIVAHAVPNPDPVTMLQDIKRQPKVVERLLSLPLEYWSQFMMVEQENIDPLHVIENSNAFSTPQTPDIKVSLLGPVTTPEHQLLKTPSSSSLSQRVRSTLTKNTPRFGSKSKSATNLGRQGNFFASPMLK
# [4] = target: G-protein coupled receptor 35 (Homo sapiens, UniProt Q9HC97); assay: GPR35 antagonists blocking zaprinast-driven arrestin recruitment, primary screen, imaging, U2OS, beta-arrestin-GFP, zaprinast agonist (AID 2058); assay type: functional;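 further: antagonist potency meaning inhibition of agonist-induced arrestin redistribution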
# [5] = target: Cytochrome P450 2D6 (Homo sapiens, UniProt P10635);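 further: CYP2D6 member of a cytochrome P450 panel assay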
# [6] = target: G-protein coupled receptor 55 (Homo sapiens, UniProt Q9Y2T6); assay: GPR55 antagonists blocking LPI-driven arrestin recruitment, primary screen, imaging, U2OS, beta-arrestin-GFP, LPI agonist (AID 2013); assay type: functional;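 further: antagonist potency measured as reduced agonist-driven arrestin aggregation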
# G-protein coupled receptor 55, sequence (Q9Y2T6 whole entry): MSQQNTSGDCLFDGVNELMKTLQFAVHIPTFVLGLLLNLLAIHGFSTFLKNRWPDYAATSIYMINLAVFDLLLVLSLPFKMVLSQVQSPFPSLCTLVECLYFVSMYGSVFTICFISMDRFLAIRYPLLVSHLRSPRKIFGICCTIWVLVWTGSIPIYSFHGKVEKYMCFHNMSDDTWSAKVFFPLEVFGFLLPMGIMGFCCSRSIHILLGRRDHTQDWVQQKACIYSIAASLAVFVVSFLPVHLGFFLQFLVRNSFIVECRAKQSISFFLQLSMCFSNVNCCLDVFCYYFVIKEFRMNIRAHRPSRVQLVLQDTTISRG
# [7] = target: Cytochrome P450 2C9 (Homo sapiens, UniProt P11712)
# [8] = target: T3, Cytochrome P450 1A2 (Homo sapiens, UniProt P05177);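 further: PubChem cytochrome P450 panel assay, CYP1A2 panel member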
# T3 sequence (P05177 whole entry): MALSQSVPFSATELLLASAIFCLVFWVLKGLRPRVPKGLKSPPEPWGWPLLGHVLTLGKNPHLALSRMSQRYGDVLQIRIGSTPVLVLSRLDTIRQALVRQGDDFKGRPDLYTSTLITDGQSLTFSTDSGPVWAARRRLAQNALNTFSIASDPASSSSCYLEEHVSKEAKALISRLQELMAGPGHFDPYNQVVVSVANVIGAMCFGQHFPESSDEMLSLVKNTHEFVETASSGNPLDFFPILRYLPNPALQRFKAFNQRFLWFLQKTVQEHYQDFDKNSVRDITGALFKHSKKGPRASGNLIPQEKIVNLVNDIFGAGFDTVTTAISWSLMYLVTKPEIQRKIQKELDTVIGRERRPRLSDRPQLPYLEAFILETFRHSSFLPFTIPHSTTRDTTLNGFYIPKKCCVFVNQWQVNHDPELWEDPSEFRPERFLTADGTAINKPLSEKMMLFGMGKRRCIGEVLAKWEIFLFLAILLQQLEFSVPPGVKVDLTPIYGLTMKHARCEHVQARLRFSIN
# [9] = target: Cytochrome P450 3A4 (Homo sapiens, UniProt P08684);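 further: CYP3A4 tested as one member of a cytochrome P450 panel screen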
# [10] = target: Polyadenylate-binding protein 1 (Homo sapiens, UniProt P11940); assay: PABP inhibition in translation initiation, SAR follow-up (AID 435018); assay type: functional
# Polyadenylate-binding protein 1, sequence (P11940 whole entry): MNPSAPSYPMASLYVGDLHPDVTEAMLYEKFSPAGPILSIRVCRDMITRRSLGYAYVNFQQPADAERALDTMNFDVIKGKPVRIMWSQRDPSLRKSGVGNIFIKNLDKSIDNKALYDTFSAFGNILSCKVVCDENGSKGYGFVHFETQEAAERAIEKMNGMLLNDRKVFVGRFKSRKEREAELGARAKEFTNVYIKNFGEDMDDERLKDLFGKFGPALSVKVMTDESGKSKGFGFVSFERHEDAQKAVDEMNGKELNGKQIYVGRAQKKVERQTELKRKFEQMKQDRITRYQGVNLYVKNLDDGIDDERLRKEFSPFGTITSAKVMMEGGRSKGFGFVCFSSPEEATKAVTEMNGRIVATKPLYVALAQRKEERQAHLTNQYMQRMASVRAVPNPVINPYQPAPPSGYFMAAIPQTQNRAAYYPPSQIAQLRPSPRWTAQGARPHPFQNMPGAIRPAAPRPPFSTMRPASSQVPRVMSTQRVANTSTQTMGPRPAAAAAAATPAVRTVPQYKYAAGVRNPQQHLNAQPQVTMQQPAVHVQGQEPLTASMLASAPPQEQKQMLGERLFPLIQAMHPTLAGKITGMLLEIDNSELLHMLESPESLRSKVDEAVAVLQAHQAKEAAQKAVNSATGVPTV
# [11] = target: Eukaryotic translation initiation factor 4H (Homo sapiens, UniProt Q15056); assay: eIF4H inhibition in translation initiation, SAR follow-up (AID 435011); assay type: functional
# [12] = target: SUMO-activating enzyme (Homo sapiens, UniProt Q9UBT2); assay: SUMOylation inhibitor hit validation, confirmation, SUMOylation inhibitor project, biochemical, AlphaScreen (AID 2018); assay type: functional
# [13] = target: T4, Calpain-2 catalytic subunit (Sus scrofa, UniProt P43367); assay: pig calpain II inhibitor potency, dose response, biochemical, fluorogenic peptide substrate (AID 1420); assay type: functional
# T4 sequence (P43367 whole entry): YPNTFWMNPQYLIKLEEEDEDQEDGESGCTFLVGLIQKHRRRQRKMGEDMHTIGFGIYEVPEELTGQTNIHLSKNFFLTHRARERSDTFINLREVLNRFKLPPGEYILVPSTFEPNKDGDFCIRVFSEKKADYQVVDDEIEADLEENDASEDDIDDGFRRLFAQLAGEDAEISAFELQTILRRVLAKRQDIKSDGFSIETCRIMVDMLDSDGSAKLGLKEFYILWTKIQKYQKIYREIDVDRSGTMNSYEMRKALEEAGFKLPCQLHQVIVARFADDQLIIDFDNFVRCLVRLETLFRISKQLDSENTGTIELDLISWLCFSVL
# [14] = growth suppression of beta-catenin-knockout colon cells, dose response, cell-based, HCT116, human colon tumor (AID 1045); assay type: functional;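 further: HCT116 colon tumor cells with beta catenin knocked out; cells exposed to compound for 60 hours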
# [15] = growth suppression of PTEN-null colon cells, dose response, cell-based, HCT116 PTEN knockout (AID 1047); assay type: functional;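 further: HCT116 colon tumor cells with PTEN knocked out; cells exposed to compound for 60 hours before readout; potency for loss of cell viability measured by luminescence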
# [16] = A Cell Based Secondary Assay To Explore Cytotoxicity of Compounds that Sensitize Mycobacterium Tuberculosis to Beta-Lactam Antibiotics.; assay type: functional
# [17] = target: T5, CAAX prenyl protease 2 (Homo sapiens, UniProt Q9Y256); assay: human Rce1 protease inhibitors, dose response, biochemical, yeast membranes, quenched-peptide fluorescence, cherry-pick (AID 588849)
# T5 sequence (Q9Y256 whole entry): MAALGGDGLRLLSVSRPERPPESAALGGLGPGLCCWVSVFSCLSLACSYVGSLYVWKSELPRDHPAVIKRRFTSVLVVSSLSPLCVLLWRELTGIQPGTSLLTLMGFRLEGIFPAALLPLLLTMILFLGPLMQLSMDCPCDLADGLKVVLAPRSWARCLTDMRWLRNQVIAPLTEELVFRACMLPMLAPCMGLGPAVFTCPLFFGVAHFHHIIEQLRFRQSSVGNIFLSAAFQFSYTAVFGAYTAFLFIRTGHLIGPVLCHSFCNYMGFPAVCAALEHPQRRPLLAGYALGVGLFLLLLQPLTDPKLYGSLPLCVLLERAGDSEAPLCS
# [18] = target: Trypsin (Sus scrofa, UniProt P00761); assay: porcine trypsin inhibitors, dose response, selectivity assay for Rce1 protease inhibitor project, biochemical, quenched peptide fluorescence, cherry-pick (AID 488789)
# [19] = HEp-2 cell cytotoxicity, dose response, cytotoxicity control for RSV inhibitor project, HTS (AID 2410); assay type: functional; settings: human respiratory syncytial virus
# [20] = target: T6, Type-1 angiotensin II receptor (Homo sapiens, UniProt P30556); assay: AT1 receptor agonists, dose response, selectivity assay for APJ receptor agonist project, cell-based, uHTS hits (AID 488865); assay type: functional;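 further: beta-arrestin recruitment to AT1 measured by enzyme fragment complementation luminescence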
# T6 sequence (P30556 whole entry): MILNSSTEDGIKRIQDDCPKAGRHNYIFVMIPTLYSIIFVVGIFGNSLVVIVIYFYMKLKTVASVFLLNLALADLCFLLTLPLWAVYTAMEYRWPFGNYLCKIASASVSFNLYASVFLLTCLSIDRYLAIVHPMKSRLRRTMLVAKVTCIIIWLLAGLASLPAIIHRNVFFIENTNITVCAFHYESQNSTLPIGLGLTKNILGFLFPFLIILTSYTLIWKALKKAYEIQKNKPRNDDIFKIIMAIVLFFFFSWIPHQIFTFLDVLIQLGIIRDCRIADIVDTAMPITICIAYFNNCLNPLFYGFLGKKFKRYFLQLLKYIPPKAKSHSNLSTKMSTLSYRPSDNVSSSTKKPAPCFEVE
# [21] = target: T7, Bcl-2-related protein A1 (Mus musculus, UniProt Q07440); assay type: functional;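 further: confirmatory dose–response counterscreen on Bfl-1, used to check hits from a UBC13 polyubiquitin inhibitor campaign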
# T7 sequence (Q07440 whole entry): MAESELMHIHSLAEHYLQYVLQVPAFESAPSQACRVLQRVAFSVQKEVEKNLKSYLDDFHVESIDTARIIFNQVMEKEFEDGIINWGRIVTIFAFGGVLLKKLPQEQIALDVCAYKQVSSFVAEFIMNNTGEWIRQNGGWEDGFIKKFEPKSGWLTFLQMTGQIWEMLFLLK
# [22] = target: T8, Ubiquitin-conjugating enzyme E2 N (Homo sapiens, UniProt P61088); assay type: functional
# T8 sequence (P61088 whole entry): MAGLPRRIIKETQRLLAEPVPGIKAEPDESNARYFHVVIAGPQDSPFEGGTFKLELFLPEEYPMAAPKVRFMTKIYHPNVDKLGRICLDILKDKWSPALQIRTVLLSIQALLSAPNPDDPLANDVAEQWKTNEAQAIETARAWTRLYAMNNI
# [23] = target: T8, Ubiquitin-conjugating enzyme E2 N; assay type: functional; remark: listed apart in the source
# [24] = tested on: Streptococcus sp. 'group A'; assay: growth inhibition of control SK(-) GAS strain, dose response, counter-screen for streptokinase expression inhibitor project, luminescence, kanamycin, BacTiterGlo, confirmation (AID 1900); assay type: functional, organism-based
# [25] = tested on: Streptococcus; assay: Group A Streptococcus viability loss, dose response, counter-screen for streptokinase expression inhibitor project, luminescence, BacTiterGlo (AID 1915); assay type: functional, organism-based;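 further: potency for reduction of bacterial viability or growth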
# [26] = target: T9, Streptokinase A (Streptococcus pyogenes serotype M1, UniProt P10520); assay: S. pyogenes streptokinase expression inhibitors, potency, dose response, plasminogen activation absorbance, OD405 (AID 1914); assay type: functional, Streptococcus pyogenes M1 GAS;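 further: secreted streptokinase activity via plasminogen activation per viability signal from cell pellet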
# T9 sequence (P10520 whole entry): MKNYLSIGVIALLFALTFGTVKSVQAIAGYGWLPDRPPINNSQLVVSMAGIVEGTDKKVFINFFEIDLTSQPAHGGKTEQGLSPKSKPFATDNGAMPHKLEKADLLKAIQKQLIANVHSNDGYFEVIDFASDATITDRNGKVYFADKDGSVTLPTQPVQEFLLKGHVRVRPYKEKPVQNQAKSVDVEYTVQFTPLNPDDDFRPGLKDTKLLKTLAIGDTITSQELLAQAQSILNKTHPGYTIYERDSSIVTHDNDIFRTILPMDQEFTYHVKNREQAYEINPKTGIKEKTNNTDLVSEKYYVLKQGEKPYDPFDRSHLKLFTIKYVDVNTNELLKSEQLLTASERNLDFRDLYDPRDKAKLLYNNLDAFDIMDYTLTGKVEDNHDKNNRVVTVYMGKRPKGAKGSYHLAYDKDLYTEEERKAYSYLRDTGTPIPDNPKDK
# [27] = HeLa cell cytotoxicity, dose response, cytotoxicity control for MgcRacGAP inhibitor project (AID 624300); assay type: functional
# [28] = target: Hexokinase (Trypanosoma brucei, UniProt Q38C41); assay: Confirmation assay for inhibitors of Trypanosoma brucei hexokinase 1-Analogue-first series. [Related pubchem assays (depositor defined):AID1430, AID1632, AID2516, AID2560, AID2579, AID2600, AID449725, AID492951]; assay type: functional
# Hexokinase, sequence (Q38C41 whole entry): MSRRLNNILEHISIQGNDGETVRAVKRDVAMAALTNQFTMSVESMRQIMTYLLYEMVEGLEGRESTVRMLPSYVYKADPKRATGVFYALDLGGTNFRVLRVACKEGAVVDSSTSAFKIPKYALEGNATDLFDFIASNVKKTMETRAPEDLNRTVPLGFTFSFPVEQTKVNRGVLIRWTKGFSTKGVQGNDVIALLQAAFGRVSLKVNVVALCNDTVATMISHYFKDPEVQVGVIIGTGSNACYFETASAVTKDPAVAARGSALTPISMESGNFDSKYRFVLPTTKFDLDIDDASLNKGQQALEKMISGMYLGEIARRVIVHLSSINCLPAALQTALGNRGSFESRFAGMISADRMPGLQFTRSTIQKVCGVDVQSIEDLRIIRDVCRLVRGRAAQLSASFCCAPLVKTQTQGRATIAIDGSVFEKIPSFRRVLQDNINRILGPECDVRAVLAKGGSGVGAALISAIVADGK
# [29] = target: Glucose-6-phosphate 1-dehydrogenase (Homo sapiens, UniProt P11413); assay: human G6PD enzyme inhibitors, dose response, selectivity assay for P. falciparum G6PD inhibitor project, biochemical, fluorescence (AID 504792); assay type: functional
# T1 sequence (Q00975 whole entry): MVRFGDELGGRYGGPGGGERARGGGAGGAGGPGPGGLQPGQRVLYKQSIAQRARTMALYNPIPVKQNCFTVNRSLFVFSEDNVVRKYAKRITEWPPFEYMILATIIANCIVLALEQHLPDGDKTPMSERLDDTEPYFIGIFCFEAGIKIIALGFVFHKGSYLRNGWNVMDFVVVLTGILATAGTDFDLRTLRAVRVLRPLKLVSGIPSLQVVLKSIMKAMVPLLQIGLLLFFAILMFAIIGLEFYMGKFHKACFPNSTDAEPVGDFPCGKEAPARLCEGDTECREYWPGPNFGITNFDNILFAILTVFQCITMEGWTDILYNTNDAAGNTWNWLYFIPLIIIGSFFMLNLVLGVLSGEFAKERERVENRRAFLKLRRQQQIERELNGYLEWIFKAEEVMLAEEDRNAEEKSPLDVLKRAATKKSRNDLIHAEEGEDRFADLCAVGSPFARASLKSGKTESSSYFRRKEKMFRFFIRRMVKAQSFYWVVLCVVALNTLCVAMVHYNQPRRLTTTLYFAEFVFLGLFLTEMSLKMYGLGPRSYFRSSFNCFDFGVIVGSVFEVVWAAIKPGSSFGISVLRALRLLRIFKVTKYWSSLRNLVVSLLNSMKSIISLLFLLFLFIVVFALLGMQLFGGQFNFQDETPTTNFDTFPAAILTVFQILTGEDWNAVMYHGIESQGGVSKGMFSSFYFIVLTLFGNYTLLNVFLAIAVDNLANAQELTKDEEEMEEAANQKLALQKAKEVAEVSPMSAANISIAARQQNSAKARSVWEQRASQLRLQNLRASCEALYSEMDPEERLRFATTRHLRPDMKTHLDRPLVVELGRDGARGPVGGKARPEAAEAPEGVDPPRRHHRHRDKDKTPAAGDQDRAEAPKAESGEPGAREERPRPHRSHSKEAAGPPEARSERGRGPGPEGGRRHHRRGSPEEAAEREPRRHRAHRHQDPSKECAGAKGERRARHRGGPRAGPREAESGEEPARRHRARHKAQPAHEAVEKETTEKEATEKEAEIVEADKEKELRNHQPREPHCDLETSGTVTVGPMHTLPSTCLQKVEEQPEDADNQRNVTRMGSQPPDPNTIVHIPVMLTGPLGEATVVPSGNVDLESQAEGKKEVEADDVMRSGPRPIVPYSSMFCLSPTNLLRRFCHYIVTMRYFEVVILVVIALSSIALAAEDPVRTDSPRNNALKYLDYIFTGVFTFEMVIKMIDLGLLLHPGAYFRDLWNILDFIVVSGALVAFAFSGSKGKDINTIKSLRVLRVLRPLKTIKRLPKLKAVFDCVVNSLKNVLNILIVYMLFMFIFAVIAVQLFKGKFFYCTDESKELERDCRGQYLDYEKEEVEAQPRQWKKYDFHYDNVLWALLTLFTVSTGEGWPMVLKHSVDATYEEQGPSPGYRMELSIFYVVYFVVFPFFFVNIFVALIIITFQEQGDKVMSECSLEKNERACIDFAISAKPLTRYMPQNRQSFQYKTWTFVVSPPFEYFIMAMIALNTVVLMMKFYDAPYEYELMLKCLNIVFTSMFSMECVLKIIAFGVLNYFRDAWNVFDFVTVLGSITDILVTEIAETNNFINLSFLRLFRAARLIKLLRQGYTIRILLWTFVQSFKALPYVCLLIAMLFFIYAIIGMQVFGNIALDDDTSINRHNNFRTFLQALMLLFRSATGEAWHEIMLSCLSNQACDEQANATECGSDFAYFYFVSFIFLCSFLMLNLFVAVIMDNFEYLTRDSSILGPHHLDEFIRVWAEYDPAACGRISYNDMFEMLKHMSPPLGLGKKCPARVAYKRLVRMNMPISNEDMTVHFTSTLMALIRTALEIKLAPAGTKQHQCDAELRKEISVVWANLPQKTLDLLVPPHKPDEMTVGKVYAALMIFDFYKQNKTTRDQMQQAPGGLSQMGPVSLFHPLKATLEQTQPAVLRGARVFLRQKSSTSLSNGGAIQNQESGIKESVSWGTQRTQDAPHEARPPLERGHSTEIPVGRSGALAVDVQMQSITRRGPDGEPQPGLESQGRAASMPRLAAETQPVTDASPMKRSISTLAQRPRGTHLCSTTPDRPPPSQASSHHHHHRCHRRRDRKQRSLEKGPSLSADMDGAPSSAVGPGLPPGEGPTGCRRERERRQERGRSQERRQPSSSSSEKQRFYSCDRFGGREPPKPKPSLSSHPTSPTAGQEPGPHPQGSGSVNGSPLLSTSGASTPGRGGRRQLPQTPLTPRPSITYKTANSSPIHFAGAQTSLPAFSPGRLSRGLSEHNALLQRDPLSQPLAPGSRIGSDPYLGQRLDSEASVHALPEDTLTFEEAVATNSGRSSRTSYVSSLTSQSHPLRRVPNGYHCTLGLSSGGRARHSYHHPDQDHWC
# T1 sequence (Q02410 whole entry): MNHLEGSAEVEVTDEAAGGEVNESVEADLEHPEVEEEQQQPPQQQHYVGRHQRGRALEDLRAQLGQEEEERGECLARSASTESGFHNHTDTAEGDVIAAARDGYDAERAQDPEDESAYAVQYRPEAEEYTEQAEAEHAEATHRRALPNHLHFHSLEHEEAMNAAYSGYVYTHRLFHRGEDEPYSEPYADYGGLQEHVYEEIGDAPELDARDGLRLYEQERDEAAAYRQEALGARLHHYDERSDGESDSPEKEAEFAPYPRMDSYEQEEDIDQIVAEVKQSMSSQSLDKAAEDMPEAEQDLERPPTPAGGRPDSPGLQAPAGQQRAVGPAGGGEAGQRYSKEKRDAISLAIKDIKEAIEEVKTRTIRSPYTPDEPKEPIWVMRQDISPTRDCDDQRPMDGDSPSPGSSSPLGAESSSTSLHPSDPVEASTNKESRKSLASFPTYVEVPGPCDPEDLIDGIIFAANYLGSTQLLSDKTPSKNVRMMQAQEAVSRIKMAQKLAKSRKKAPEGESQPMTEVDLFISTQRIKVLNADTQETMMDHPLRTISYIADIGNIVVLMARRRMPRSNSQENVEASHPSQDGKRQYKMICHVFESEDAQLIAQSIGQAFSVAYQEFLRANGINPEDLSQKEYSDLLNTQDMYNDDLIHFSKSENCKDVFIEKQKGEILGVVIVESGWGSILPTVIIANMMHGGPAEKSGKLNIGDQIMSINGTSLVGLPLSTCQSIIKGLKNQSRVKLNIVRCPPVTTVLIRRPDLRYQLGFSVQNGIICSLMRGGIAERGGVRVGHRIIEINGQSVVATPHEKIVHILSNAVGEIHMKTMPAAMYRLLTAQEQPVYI
structure (smiles),measurement,setting,value
Cc1cccc(NC(=S)NCc2ccco2)n1,IC50,[1],6.94 µM (active)
same,IC50,[2],> 50 µM (inactive)
N#C/C(=C/c1ccc(N2CCOCC2)o1)c1nc2ccccc2[nH]1,IC50,[3],20.4 µM (active)
same,IC50,[4],2.41 µM (active)
NC1=C(c2nc(-c3ccc(F)cc3)cs2)C(=O)CN1CCCN1CCOCC1,AC50,[5],28.2 µM (inconclusive)
same,IC50,[6],9.02 µM (active)
same,AC50,[7],28.2 µM (inconclusive)
same,AC50,[8],15.8 µM (inconclusive)
same,AC50,[9],10 µM (inconclusive)
O=C(CSc1ccc(-c2ccco2)nn1)NCc1ccccc1,IC50,[10],> 100 µM (inactive)
same,IC50,[11],57 µM (active)
COc1ccc(N=C2SC(C(=O)Nc3ccc(F)cc3)CC(=O)N2C)cc1 (centres undefined),IC50,[10],> 100 µM (inactive)
same,IC50,[11],> 100 µM (inactive)
O=C(Nc1nnc(-c2ccccc2SCc2ccccc2F)s1)Nc1ccccc1F,IC50,[12],41.1 µM (active)
same,IC50,[13],> 50 µM (not active)
same,EC50,[14],5.32 µM (active)
same,EC50,[15],5.89 µM (active)
same,CC50,[16],29.5 µM (active)
NC(=O)c1sc2nc(N3CCCCC3)c3c(c2c1N)CCCC3,AC50,[17],7.04 µM (active)
same,AC50,[18],3.58 µM (active)
same,CC50,[19],15.6 µM (active)
CCOc1cc2[nH]c(=S)n(CCCC(=O)NCc3ccccn3)c(=O)c2cc1OCC,EC50,[20],> 100 µM (inactive)
O=C(NCCCN1CCN(c2ccc(F)cc2)CC1)C1CCCN(c2ncnc3c2nc2n3CCCCC2)C1 (centres undefined),IC50,[21],> 20 µM (inactive)
same,IC50,[22],3.64 µM (active)
same,IC50,[23],8.08 µM (active)
c1ccc(-c2noc(-c3ccccc3-c3ccccc3)n2)cc1,IC50,[6],6.09 µM (active)
same,EC50,[24],11.8 µM (active)
same,EC50,[25],> 150 µM (not active)
same,EC50,[26],21.5 µM (active)
O=c1c2cc(F)ccc2sn1-c1ccccc1Cl,IC50,[3],35 µM (active)
same,CC50,[27],71.9 µM (active)
same,IC50,[28],2.33 µM (active)
same,IC50,[29],15.9 µM (active)
O=C(Nc1cc(Cl)ccc1C(=O)O)c1ccc(-c2cccs2)cc1,IC50,[28],> 25 µM (inactive)
